The numbers were not newly measured in patent US11780971B2, “Active yarns and textiles for the stabilization and controlled release of active compounds” (priority 2018, dated 2023), which cites them from elsewhere.

Where “and” joins values, the source holds several entries; their conditions need not be identical. Equal entries are not always repeated.

The test system of the series is Staphylococcus aureus strain.

For `C=CCc1ccc(O)c(OC)c1` [eugenol], the “Minimum Inhibitory Concentration (MIC)” value was 625 µg/mL and 662 µg/mL.
